# According to PMC9453454, “Design, synthesis, and anticancer activity of three novel palbociclib derivatives” (Frontiers in Oncology, 2022):
# Like-named read-outs stand apart in the source and are kept apart here.
# Tests used:
# [1] = test system: HepG2 cells; assay: MTT in vitro cytotoxicity, HepG2; assay type: cell-based, human
# Method: (§1) Human lung cancer cells (NCI-H460, NCI-H1299, and A549), human breast cancer cells (MDA-MB-231, MDA-MB-453, and MCF-7), human liver cancer cells (Huh-7 and HepG2), human colon cancer cells (coca-2, HT-29, and HCT116), human cervical cancer cells (HeLa), human normal lung cells (BEAS-2B), and human normal […] (MCF-10) were from the State Key Laboratory of Pharmaceutical Biotechnology, Nanjing University. NCI-H460 were cultured in 1640 medium containing 10% fetal bovine serum (FBS). MDA-MB-231 were cultured in L15 medium containing 10% FBS without CO2, and other cell lines were cultured in DMEM medium containing 10% FBS CO2 in the incubator.
# (§2) MTT assay was used to identify 14 different cell lines (human lung cancer cells NCI-H460, NCI-H1299, and A549; human breast cancer cells MDA-MB-231, MDA-MB-453, and MCF-7; human liver cancer cells Huh-7 and HepG2; human colon cancer cells coca-2, HT-29, and HCT116; and human cervical cancer cells HeLa) and 2 kinds of normal cell lines (human normal lung epithelial cells BEAS-2B, human normal breast epithelial cells MCF10-A) for quantitative analysis ([15]). In addition, 10-HCPT and palbociclib were used as positive control.
# (§3) Cells were harvested during the logarithmic growth phase and seeded into 96-well plates at a density of 2.0×10^3 cells/well. After being incubated for 24 h, the cells were treated with different concentrations of various culture programs for 48 h. Afterwards, 20 μl of MTT solution (5 mg/ml) was added to each well, and the cells were incubated in a 5% CO2 atmosphere at 37°C for another 4 h. Then, the supernatant was discarded, and the formazan crystals were dissolved in 150 μl DMSO. Subsequently, the absorbance was measured at 570 nm via a Tecan microplate reader. The concentration that caused 50% inhibition of cell viability (IC50) values was calculated by GraphPad Software. Triplicate experiments were performed in parallel for each concentration, and the results are shown as the mean ± SD. The inhibitory ratio was calculated using the following formula: inhibitory ratio (%) = [1−(mean absorbance of experiment group)/(mean absorbance of control group)] × 100.
# [2] = test system: MDA-MB-231 cells; assay: MTT in vitro cytotoxicity, MDA-MB-231; assay type: cell-based, human
# Method: as §1, §2, §3
# [3] = test system: HT-29 cells; assay: MTT in vitro cytotoxicity, HT-29; assay type: cell-based, human
# Method: as §1, §2, §3
# [4] = test system: MCF10-A cells; assay: MTT in vitro cytotoxicity, MCF10-A normal breast epithelial cells; assay type: cell-based, human; settings: MCF-10A, 48 h
# Method: as §1, §2, §3
# [5] = test system: A549 cells; assay: MTT in vitro cytotoxicity, A549; assay type: cell-based, human
# Method: as §1, §2, §3
# [6] = test system: NCI-H460 cells; assay: MTT in vitro cytotoxicity, NCI-H460; assay type: cell-based, human
# Method: as §1, §2, §3
# [7] = test system: Huh-7 cells; assay: MTT in vitro cytotoxicity, Huh-7; assay type: cell-based, human
# Method: as §1, §2, §3
# [8] = test system: MCF-7 cells; assay: MTT in vitro cytotoxicity, MCF-7; assay type: cell-based, human
# Method: as §1, §2, §3
# [9] = test system: MDA-MB-453 cells; assay: MTT in vitro cytotoxicity, MDA-MB-453; assay type: cell-based, human
# Method: as §1, §2, §3
# [10] = test system: Hela cells; assay: MTT in vitro cytotoxicity, Hela; assay type: cell-based, human; settings: 48 h
# Method: as §1, §2, §3
# [11] = test system: BEAS-2B cells; assay: MTT in vitro cytotoxicity, BEAS-2B normal lung epithelial cells; assay type: cell-based, human; settings: 48 h
# Method: as §1, §2, §3
# [12] = test system: HCT116 cells; assay: MTT in vitro cytotoxicity, HCT116; assay type: cell-based, human
# Method: as §1, §2, §3
# [13] = test system: NCI-H1299 cells; assay: MTT in vitro cytotoxicity, NCI-H1299; assay type: cell-based, human
# Method: as §1, §2, §3
# [14] = test system: Coca-2 cells; assay: MTT in vitro cytotoxicity, Coca-2; assay type: cell-based, human; settings: 48 h
# Method: as §1, §2, §3
# [15] = test system: PI3K, AKT, p-PI3K, and p-AKT; assay: Western blot of PI3K/AKT pathway-related proteins in NCI-H460; assay type: cell-based, human; settings: NCI-H460, 0, 0.5, 1, 2 μM for 24 h
# Method: (§4) NCI-H460 cells were harvested in logarithmic growth phase and seeded into six-well plates at a density of 5.0 × 10^3 cells/well. After being incubated for 48 h, the cells were harvested with 0.25% Trypsin after exposed to various concentrations of HP-1 (0, 0.5, 1, 2 μM), 10-HCPT (2 μM), and pabocini (2 μM) for 24 h.Then, precooled radio-immunoprecipitation assay (RIPA) lysates [10 mM Tris–HCl, 1 mM EDTA, 1% sodium dodecyl sulfate (SDS), 1 mM dithiothreitol (DTT), 0.1 mM phenylmethylsulfonyl fluoride (PMSF), protease inhibitors, 1% Nonidet P-40, pH 8] were added to them and placed on ice to lyse the cells for 30 min. After centrifugation at 10,000 rpm and 4°C for 10 min, the supernatant was collected to obtain soluble proteins. Lysates were centrifuged at 10,000 rpm for 20 min at 4°C, and the supernatant was collected.
# (§5) The absorbance value was measured at 562 nm using a microplate analyzer to calculate the protein content. An equal amount of protein was separated by 10% SDS–polyacrylamide gel electrophoresis (SDS-PAGE) gels and transferred onto PVDF membrane. […] Finally, the membrane was placed on the membrane carrier plate, and the bands were detected with enhanced chemiluminescence reagent to indicate the protein expression.
# [16] = test system: Cyclin D, CDK4, CDK6, Rb, and p-Rb; assay: Western blot of Cyclin D-CDK4/6-Rb pathway proteins in NCI-H460; assay type: cell-based, human; settings: NCI-H460, 0, 0.5, 1, 2 μM for 24 h
# Method: as §4, §5
# [17] = test system: NCI-H460 cells; assay: Annexin V/PI apoptosis by flow cytometry, NCI-H460; assay type: cell-based, human; settings: same concentration (not given)
# Method: NCI-H460 cells were harvested in logarithmic growth phase and seeded into six-well plates at a density of 5.0 × 10^3 cells/well. After being incubated for 24 h, the cells were harvested with 0.25% Trypsin after exposed to various culture programs, washed with PBS, and re-suspended in 500 μl binding buffer. The experiment was triply replicated. Then, the cells were stained by adding to 5 μl Annexin V-FITC and 5 μl PI for15 min at 25°C in the dark. Finally, the cells were detected and analyzed using a flow cytometer with FlowJo 7.6.1.
smiles,measurement,setting,value
"CC[C@@]1(O)C(=O)OCc2c1cc1n(c2=O)Cc2cc3cc(O)ccc3nc2-1 [10-HCPT, 10-hydroxycamptothecin, reference compound]",IC50,"[1]; Homo sapiens, HepG2, 48 h",2.45 ± 0.27 µM
same,IC50,"[2]; Homo sapiens, MDA-MB-231, 48 h",15.5 ± 1.07 µM
same,IC50,"[3]; Homo sapiens, HT-29, 48 h",4.61 ± 0.19 µM
same,IC50,[4]; Homo sapiens,20.3 ± 0.59 µM
same,IC50,"[5]; Homo sapiens, A549, 48 h",4.14 ± 0.03 µM
same,IC50,"[6]; Homo sapiens, NCI-H460, 48 h",1.96 ± 0.01 µM
same,IC50,"[7]; Homo sapiens, Huh-7, 48 h",7.69 ± 0.84 µM
same,IC50,"[8]; Homo sapiens, MCF7, 48 h",13.2 ± 0.31 µM
same,IC50,"[9]; Homo sapiens, MDA-MB-453, 48 h",5.73 ± 0.62 µM
same,IC50,"[10]; Homo sapiens, HeLa",6.54 ± 0.07 µM
same,IC50,"[11]; Homo sapiens, BEAS-2B",7.05 ± 0.52 µM
same,IC50,"[12]; Homo sapiens, HCT-116, 48 h",10.4 ± 0.7 µM
same,IC50,"[13]; Homo sapiens, NCI-H1299, 48 h",3.39 ± 0.16 µM
same,IC50,[14]; Homo sapiens,13.4 ± 0.34 µM
"CC[C@]1(O)C(=O)OCc2c1cc1n(c2=O)Cc2cc3cc(OC(=O)CCCC(=O)N4CCN(c5ccc(Nc6ncc7c(C)c(C(C)=O)c(=O)n(C8CCCC8)c7n6)nc5)CC4)ccc3nc2-1 [HP-1, (R)-4-ethyl-4-hydroxy-3,14-dioxo-3,4,12,14-tetrahydro-1H-pyrano[3’,4’:6,7] indolizino[1,2-b]quinolin-9-yl5-(4-(6-((6-acetyl-8-cyclopentyl-5-methyl-7-oxo-7,8-dihydropyrido[2,3-d]pyrimidin-2-yl)amino)pyridin-3-yl)piperazin-1-yl)-5-oxopentanoate]","expression of PI3K, AKT, p-PI3K, and p-AKT",[15],decreased
same,IC50,"[1]; HepG2 human liver cancer cells, MTT, 48 h, read-out: IC50",2.57 ± 0.42 µM
same,IC50,"[2]; MDA-MB-231 human breast cancer cells, MTT, 48 h, read-out: IC50",15.3 ± 2.51 µM
same,"Protein expressions of Cyclin D, CDK4, CDK6, Rb, and p-Rb",[16],significantly decreased
same,Q1 (annexin V/PI quadrant),"[17]; NCI-H460, 12h",0.32
same,Q2 (annexin V/PI quadrant),"[17]; NCI-H460, 12h",9.93
same,Q3 (annexin V/PI quadrant),"[17]; NCI-H460, 12h",13.4
same,Q4 (annexin V/PI quadrant),"[17]; NCI-H460, 12h",76.4
same,Q1 (annexin V/PI quadrant),"[17]; NCI-H460, 24h",0.80
same,Q2 (annexin V/PI quadrant),"[17]; NCI-H460, 24h",33.7
same,Q3 (annexin V/PI quadrant),"[17]; NCI-H460, 24h",31.4
same,Q4 (annexin V/PI quadrant),"[17]; NCI-H460, 24h",34.0
same,Q1 (annexin V/PI quadrant),"[17]; NCI-H460, 36h",0.66
same,Q2 (annexin V/PI quadrant),"[17]; NCI-H460, 36h",61.8
same,Q3 (annexin V/PI quadrant),"[17]; NCI-H460, 36h",33.6
same,Q4 (annexin V/PI quadrant),"[17]; NCI-H460, 36h",3.91
same,IC50,"[3]; HT-29 human colon cancer cells, MTT, 48 h, read-out: IC50",12.4 ± 1.62 µM
same,IC50,"[4]; MCF10-A human normal breast epithelial cells, MTT, read-out: IC50",32.4 ± 1.33 µM
same,IC50,"[5]; A549 human lung cancer cells, MTT, 48 h, read-out: IC50",3.41 ± 0.22 µM
same,IC50,"[6]; NCI-H460 human lung cancer cells, MTT, 48 h, read-out: IC50",0.96 ± 0.01 µM
same,IC50,"[7]; Huh-7 human liver cancer cells, MTT, 48 h, read-out: IC50",9.48 ± 1.59 µM
same,IC50,"[8]; MCF7, MCF-7 human breast cancer cells, MTT, 48 h, read-out: IC50",10.3 ± 1.68 µM
same,IC50,"[9]; MDA-MB-453 human breast cancer cells, MTT, 48 h, read-out: IC50",5.28 ± 0.81 µM
same,IC50,"[10]; Hela human cervical cancer cells, MTT, read-out: IC50",5.46 ± 0.08 µM
same,IC50,"[11]; BEAS-2B human normal lung epithelial cells, MTT, read-out: IC50",36.4 ± 0.43 µM
same,IC50,"[12]; HCT-116, HCT116 human colon cancer cells, MTT, 48 h, read-out: IC50",17.1 ± 0.31 µM
same,melting point,,44.5 to 46.4 °C
same,IC50,"[13]; NCI-H1299 human lung cancer cells, MTT, 48 h, read-out: IC50",2.29 ± 0.02 µM
same,IC50,"[14]; Coca-2 human colon cancer cells, MTT, read-out: IC50",15.2 ± 0.54 µM
